The results in this text go back to PubChem BioAssay (NCI).

What all share (experiment): inhibition of tumour cell growth, NCI panel, 48 h
For assay [1], the system named is KM20L2 colon.
The test system of assay [2] is SF-268 CNS.
Assay [3] relates to A498 renal.
The subject of assay [4] is DMS 273 small cell lung.
For assay [5], the system named is SNB-19 CNS.
For assay [6], the system named is 786-0 renal.
Assay [7] relates to DLD-1 colon.
Assay [8] deals with LXFL 529 NSCLC.
The test system of assay [9] is COLO 205 colon.

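Results reflect a 48-hour exposure of cells in 96-well plates to compound at five concentrations. TGI: concentration producing complete growth inhibition.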

As for `O=C1CCCC(=O)N1CCc1c[nH]c2ccccc12`, the TGI in assay [1], in [2], in assay [3], in assay [4], in assay [5] and in [6] was more than 100 µM each time. The TGI in [7] and in assay [8] was more than 100 µM each time.
For `Cc1ccc([N+](=O)[O-])cc1NC(=O)c1cccc([N+](=O)[O-])c1O`, the TGI is more than 100 µM in assay [1]; 83.9 µM in assay [2]; 48 µM in [3]; 76.4 µM in assay [4]; more than 100 µM in [5]; more than 100 µM in [6]. Further, the TGI is 32.2 µM in [9], more than 100 µM in assay [7] and 78.1 µM in assay [8].
In the case of `COC(=O)[C@]12CC=C3O[C@@H]4OC5(CCCCC5)O[C@@H]4C3[C@@H]1C(=O)CCC2=O` (some centres undefined), the TGI in assay [1], in assay [2], in assay [3], in assay [4], in assay [5] and in assay [6] was more than 100 µM each time. Besides, the TGI in [9], in assay [7] and in [8] was more than 100 µM throughout.
Take `O=C(c1ccccc1)[C@@H]1C[C@H](Sc2ccccc2)c2cc(Cl)ccc2N1`: the TGI in assay [1] was 70.3 µM; in [2], 48.4 µM; in assay [3], 48.1 µM; in assay [4], 84 µM; in [5], more than 100 µM; in [6] it was 33.6 µM. The values for the TGI in assay [9], in assay [7] and in assay [8] were more than 100 µM, more than 100 µM and 77.5 µM, respectively.
`COc1ccc(CC(=O)NCCc2ccc(OC)c(OC)c2)cc1Br`: the TGI in assay [1], in [2], in [3], in assay [4], in assay [5] and in [6] was more than 100 µM throughout. The TGI in assay [9], in assay [7] and in assay [8] was more than 100 µM each time.
For the molecule `COc1ccc(S(=O)(=O)N/N=C/c2cc(I)cc([N+](=O)[O-])c2O)cc1OC`, the TGI in assay [1] is more than 100 µM; in assay [3], more than 100 µM; in [4] it was more than 100 µM; in assay [5] it was 88.3 µM; in [6], more than 100 µM; in [9] it was more than 100 µM. In addition, the values for the TGI in assay [7] and in assay [8] were more than 100 µM and 70.3 µM, respectively.
Consider `CN(C)C=[N+]=[N-]`, for which the TGI in assay [1], in assay [2], in assay [3], in [4], in assay [5] and in [6] was more than 100 µM throughout. In addition, the TGI in assay [9], in assay [7] and in assay [8] was more than 100 µM each time.
As for `c1ccc2cc3[s+]snc3cc2c1`, the TGI in assay [1], in assay [2], in [3], in assay [4], in assay [5] and in assay [6] was more than 100 µM throughout. The TGI in assay [9], in [7] and in assay [8] was more than 100 µM each time.
In the case of `O=c1nc(NC(c2ccccc2)(c2ccccc2)c2ccccc2)ccn1CCNCCn1ccc(NC(c2ccccc2)(c2ccccc2)c2ccccc2)nc1=O`, the TGI was 30.1 µM in [1]; 32.4 µM in assay [2]; 78 µM in assay [3]; 21.6 µM in assay [4]; 23.4 µM in assay [5]; 31.5 µM in [6]. Besides, the TGI is 35.6 µM in [9], more than 100 µM in assay [7] and 26.2 µM in [8].
Take `O=C(O)CNS(=O)(=O)c1ccc(NC(=O)CI)cc1`: the TGI in assay [1] is 54.5 µM; in assay [2], 44.3 µM; in [3], more than 100 µM; in assay [4] it was 38.8 µM; in assay [5], more than 100 µM; in assay [6] it was 28.6 µM. Further, the TGI in assay [9] worked out at 96.8 µM; in assay [7], 60.7 µM; in assay [8] it was 20.2 µM.
As to `COc1cc(C(O)C(=O)c2nc3ccc([N+](=O)[O-])cc3[nH]c2=O)ccc1O` (centres undefined), the TGI in assay [1] is more than 100 µM; in [2], more than 100 µM; in assay [3] it was 97 µM; in assay [4], more than 100 µM; in assay [5], more than 100 µM; in assay [6], more than 100 µM. In addition, the TGI in assay [9], in [7] and in [8] was more than 100 µM throughout.
As for `O=C(O)CCC(NC(=O)c1ccccc1)C(=O)O` (centres undefined), the TGI in [1], in assay [2], in [3], in [4], in [5] and in assay [6] was more than 100 µM each time. Also, the TGI in assay [9], in assay [7] and in assay [8] was more than 100 µM each time.
Take `Cc1c(C(=O)CC(=O)C(=O)Nc2ccc(Cl)cc2)[n+](=O)c2ccccc2n1[O-]`: the TGI in [1], in [2], in assay [3], in [4], in [5] and in [6] was more than 100 µM throughout. The TGI in assay [9], in [7] and in assay [8] was more than 100 µM each time.
Consider `CC(C)(CN1CCCCC1)C(=O)/C=C/c1ccc(Cl)cc1`, for which the TGI in assay [1] worked out at 7.48 µM; in assay [2] it was 12.1 µM; in assay [3] it was 10.8 µM; in assay [4] it was 13.3 µM; in assay [5], 17 µM; in assay [6], 9.68 µM. Also, the values for the TGI in assay [9], in assay [7] and in [8] were 17.5 µM, 22.9 µM and 9.75 µM, respectively.
